According to ChEMBL document CHEMBL1955725, “Structure-guided lead optimization of triazolopyrimidine-ring substituents identifies potent Plasmodium falciparum dihydroorotate dehydrogenase inhibitors with clinical candidate potential” (J Med Chem, 2011):
≈ marks a conversion by molar mass, not a printed value.

Legend:
[1] = tested on: Liver; experiment: Intrinsic clearance in mouse liver microsomes; format: ADME, Microsome
[2] = target: T1, Dihydroorotate dehydrogenase (Plasmodium falciparum, UniProt Q54A96)
T1 sequence (Q54A96 whole entry): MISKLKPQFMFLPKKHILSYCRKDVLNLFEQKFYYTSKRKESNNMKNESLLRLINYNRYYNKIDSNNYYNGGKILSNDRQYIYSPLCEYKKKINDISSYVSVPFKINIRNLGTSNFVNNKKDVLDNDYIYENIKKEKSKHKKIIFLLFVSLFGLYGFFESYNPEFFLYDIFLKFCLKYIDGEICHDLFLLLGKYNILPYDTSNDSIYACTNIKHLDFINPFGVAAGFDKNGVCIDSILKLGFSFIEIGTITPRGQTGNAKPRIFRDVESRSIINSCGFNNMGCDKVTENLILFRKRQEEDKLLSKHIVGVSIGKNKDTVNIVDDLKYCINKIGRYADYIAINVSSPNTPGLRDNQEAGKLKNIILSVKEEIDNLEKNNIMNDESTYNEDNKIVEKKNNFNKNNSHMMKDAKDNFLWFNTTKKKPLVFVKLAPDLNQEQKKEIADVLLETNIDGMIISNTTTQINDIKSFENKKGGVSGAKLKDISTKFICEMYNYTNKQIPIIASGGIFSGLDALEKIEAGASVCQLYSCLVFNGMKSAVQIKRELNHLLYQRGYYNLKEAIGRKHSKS
Description: Inhibition of Plasmodium falciparum C-terminal hexa-His tagged DHODH expressed in Escherichia coli by DCIP reduction assay

[3] = tested on: Plasmodium falciparum; experiment: Antimalarial activity against Plasmodium falciparum 3D7 by [3H]hypoxanthine incorporation assay in presence of human serum; format: functional, organism-based
[4] = Inhibition of Plasmodium berghei C-terminal hexa-His tagged DHODH expressed in Escherichia coli by DCIP reduction assay
[5] = Lipophilicity, log D of the compound at pH 7.4; format: physicochemical; conditions: buffer
[6] = tested on: Plasma; experiment: Plasma protein binding in human by chromatographic method; format: ADME, cell-free
[7] = Aqueous solubility of the compound at pH 6.5; format: physicochemical
[8] = tested on: Liver microsomes; experiment: Intrinsic clearance in human liver microsomes; format: ADME, Microsome
[9] = target: Dihydroorotate dehydrogenase (quinone), mitochondrial (Homo sapiens, UniProt Q02127)
Chain of Dihydroorotate dehydrogenase (quinone), mitochondrial (Q02127 whole entry): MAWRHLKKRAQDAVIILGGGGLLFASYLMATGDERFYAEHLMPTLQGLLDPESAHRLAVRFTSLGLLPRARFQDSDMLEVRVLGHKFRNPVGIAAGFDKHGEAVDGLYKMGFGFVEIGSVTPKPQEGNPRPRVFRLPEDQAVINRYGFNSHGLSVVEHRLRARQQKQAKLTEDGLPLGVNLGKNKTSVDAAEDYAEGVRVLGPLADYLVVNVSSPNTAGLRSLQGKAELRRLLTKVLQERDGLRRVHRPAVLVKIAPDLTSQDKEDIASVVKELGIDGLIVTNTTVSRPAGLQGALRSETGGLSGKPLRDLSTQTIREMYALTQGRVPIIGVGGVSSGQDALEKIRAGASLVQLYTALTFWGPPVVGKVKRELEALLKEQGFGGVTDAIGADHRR
Description: Inhibition of human C-terminal hexa-His tagged DHODH expressed in Escherichia coli by DCIP reduction assay

[10] = Cmax in Swiss outbred mouse at 20 mg/kg, po; format: ADME, organism-based; design: dose 20 mg/kg, route oral; conditions: in vivo
[11] = AUC (0 to infinity) in Swiss outbred mouse plasma at 20 mg/kg, po; format: ADME, organism-based; design: time infinity, dose 20 mg/kg, route oral
[12] = Terminal elimination half life in Swiss outbred mouse at 20 mg/kg, po; format: ADME, organism-based; design: dose 20 mg/kg, route oral; conditions: in vivo, read-out: beta t1/2 (converted)
[13] = tested on: Mus musculus; experiment: Time plasma concentration remained above 1 uM in Swiss outbred mouse plasma at 20 mg/kg, po; format: ADME, organism-based; design: dose 20 mg/kg, route oral; conditions: in vivo
[14] = in vivo; conditions: Swiss outbred, mouse, po, 20 mg/kg
[15] = tested on: Plasmodium falciparum; experiment: Antimalarial activity against Plasmodium falciparum 3D7 0087/N9 infected in human RBC engrafted NOD-SCID IL-2Rgamma-null mouse assessed as reduction in parasitemia administered orally 3 days post infection qd for 4 days measured 24 hrs after final dose by FACS analysis; format: functional; conditions: 3D7 0087/N9, po
[16] = tested on: Mus musculus; experiment: Time plasma concentration remained above 1 uM in Swiss outbred mouse plasma at 10 mg/kg, po; format: ADME, organism-based; design: dose 10 mg/kg, route oral; conditions: in vivo
[17] = Terminal elimination half life in Swiss outbred mouse at 10 mg/kg, po; format: ADME, organism-based; design: dose 10 mg/kg, route oral; conditions: in vivo, read-out: beta t1/2 (converted)
[18] = in vivo; conditions: Swiss outbred, mouse, po, 10 mg/kg
[19] = Cmax in Swiss outbred mouse at 10 mg/kg, po; format: ADME, organism-based; design: dose 10 mg/kg, route oral; conditions: in vivo
[20] = AUC (0 to infinity) in Swiss outbred mouse plasma at 10 mg/kg, po; format: ADME, organism-based; design: time infinity, dose 10 mg/kg, route oral

Row | SMILES | Intrinsic clearance [1] | IC50 [2] | EC50 [3] | IC50 [4] | logD [5] | PPB [6] | solubility [7] | Intrinsic clearance [8] | IC50 [9] | further results
1 | CSc1nc2nc(C)cc(Nc3ccc(S(F)(F)(F)(F)F)cc3)n2n1 | 107.5 µL/min/mg | 30 nM | 32 nM | > 10000 nM | 3.5 | 97.7% | 7.8 µM (≈ 3.1 µg/mL) | 22.4 µL/min/mg |  | 
2 | COCc1nc2nc(C)cc(Nc3ccc(C(F)(F)F)cc3)n2n1 | 13.3 µL/min/mg | 410 nM | 1000 nM | 5500 nM | 2.5 | 75.6% | 150 µM (≈ 50.6 µg/mL) | 6.7 µL/min/mg |  | 
3 | CCC(F)(F)c1nc2nc(C)cc(Nc3ccc(S(F)(F)(F)(F)F)cc3)n2n1 | 6.7 µL/min/mg |  | 550 nM | 4700 nM | 3.9 | 97.7% | 15 µM (≈ 6.44 µg/mL) | < 5 µL/min/mg | > 100000 nM | 
4 | CCOc1nc2nc(C)cc(Nc3ccc(S(F)(F)(F)(F)F)cc3)n2n1 | 11.3 µL/min/mg | 57 nM | 100 nM | 470 nM | 3.4 | 97.7% | 4 µM (≈ 1.58 µg/mL) | < 5 µL/min/mg | > 100000 nM | Cmax [10]: 1100 nM; AUC(0-inf) [11]: 10.1 µM·h; half-life [12]: 2.7 h; Time [13]: 3 h; Tmax [14]: 1 h
5 | Cc1cc(Nc2ccc(S(F)(F)(F)(F)F)cc2)n2nc(C3CC3)nc2n1 | 12.6 µL/min/mg |  | 500 nM | 2000 nM | 3.5 | 97.7% | 16 µM (≈ 6.26 µg/mL) | < 5 µL/min/mg | > 100000 nM | 
6 | CCc1nc2nc(C)cc(Nc3ccc(Cl)cc3)n2n1 | 63.1 µL/min/mg | 280 nM | 790 nM | 2300 nM | 2.8 | 86.1% | 170 µM (≈ 48.9 µg/mL) | 12.8 µL/min/mg |  | 
7 | Cc1cc(Nc2ccc(C(F)(F)F)cc2)n2nc(C3CC3)nc2n1 | 8.6 µL/min/mg | 140 nM | 150 nM | 2600 nM | 3.3 | 92.8% | 38 µM (≈ 12.7 µg/mL) | < 5 µL/min/mg | > 100000 nM | 
8 | Cc1cc(Nc2ccc(Cl)cc2)n2nc(C(C)C)nc2n1 | 157.7 µL/min/mg | 330 nM | 850 nM | 2100 nM | 3.2 | 84.9% | 83 µM (≈ 25 µg/mL) | 14.1 µL/min/mg |  | 
9 | CCN(CC)CCCC(C)Nc1ccnc2cc(Cl)ccc12 (centres undefined) [CHLOROQUINE] |  |  |  |  |  |  |  |  |  | ED50 [15]: 3.2 mg/kg; ED90 [15]: 4.9 mg/kg
10 | COCc1nc2nc(C)cc(Nc3ccc(S(F)(F)(F)(F)F)cc3)n2n1 | 14.3 µL/min/mg | 390 nM | 2100 nM | 3300 nM | 2.8 | 91.7% | 63 µM (≈ 24.9 µg/mL) | 5.6 µL/min/mg |  | 
11 | Cc1cc(Nc2ccc(C(F)(F)F)cc2)n2nc(CCO)nc2n1 | 6.9 µL/min/mg | 930 nM | 480 nM |  | 2.2 | 67% | 19 µM (≈ 6.41 µg/mL) | < 5 µL/min/mg |  | 
12 | COCCc1nc2nc(C)cc(Nc3ccc(S(F)(F)(F)(F)F)cc3)n2n1 | 14.1 µL/min/mg | 2500 nM | 5000 nM |  | 3 | 87.7% | 31 µM (≈ 12.7 µg/mL) | 11.5 µL/min/mg |  | 
13 | CCc1nc2nc(C)cc(Nc3cccc(Cl)c3)n2n1 | 125.4 µL/min/mg | 240 nM | 3300 nM |  | 2.8 | 86.7% | 170 µM (≈ 48.9 µg/mL) | 78.3 µL/min/mg |  | 
14 | C[C@H]1[C@H](OC(=O)CCC(=O)O)O[C@@H]2O[C@@]3(C)CC[C@H]4[C@H](C)CC[C@@H]1[C@@]24OO3 [ARTESUNATE] |  |  |  |  |  |  |  |  |  | ED90 [15]: 12.7 mg/kg
15 | CCC(F)(F)c1nc2nc(C)cc(Nc3ccc(C(F)(F)F)cc3)n2n1 | 6.5 µL/min/mg | 19 nM | 45 nM | 2500 nM | 3.6 | 93.2% | 17 µM (≈ 6.31 µg/mL) | < 5 µL/min/mg | > 100000 nM | Time [16]: 4 h; half-life [17]: 3.1 h; Tmax [18]: 0.5 h; Cmax [19]: 3500 nM; AUC(0-inf) [20]: 10.9 µM·h
16 | Cc1cc(Nc2ccc(Cl)cc2)n2nc(C(C)(F)F)nc2n1 | 62.8 µL/min/mg | 38 nM | 50 nM | 1700 nM | 3 | 87.9% | 77 µM (≈ 24.9 µg/mL) | 16 µL/min/mg | > 100000 nM | 
17 | Cc1cc(Nc2cccc(Cl)c2)n2nc(C(C)(F)F)nc2n1 | 72.2 µL/min/mg | 54 nM | 130 nM |  | 3 | 88.2% | 77 µM (≈ 24.9 µg/mL) | 44.4 µL/min/mg |  | 
18 | CCc1nc2nc(C)cc(Nc3ccc(S(F)(F)(F)(F)F)cc3)n2n1 | 16.7 µL/min/mg |  | 100 nM | 1400 nM | 3.3 | 96.4% | 34 µM (≈ 12.9 µg/mL) | < 5 µL/min/mg | > 100000 nM | 
19 | CSc1nc2nc(C)cc(Nc3ccc(C(F)(F)F)cc3)n2n1 | 76.9 µL/min/mg | 36 nM | 8.4 nM | 4800 nM | 3.2 | 91.8% | 19 µM (≈ 6.45 µg/mL) | 18.7 µL/min/mg |  | 
